Experimental data published in article PMC12666569, “The Pseudomonas aeruginosa membrane histidine kinase BqsS/CarS directly senses environmental ferrous iron (Fe^2+)” (The Journal of Biological Chemistry, 2025).

Key:
intact PaBqsS = target: T1, intact PaBqsS (Pseudomonas aeruginosa, UniProt Q9I0I2); conditions: 5.0 mM Mg2+, 37 °C, SEC buffer pH 7.5, Fos-Chol-14; no added Fe2+
T1 construct: gene carS

[1] = target: the molecule itself; assay: SEC; cleaved, purified PaBqsS in detergent (Fos-Chol-14, also glyco-diosgenin (GDN)); HiLoad 16/600 Superose 6 pg; 50 mM Tris pH 7.5, 100 mM NaCl, 1 mM TCEP, 5% glycerol, 0.02% Fos-Chol-14

| Molecule | specific activity (intact PaBqsS) | stoichiometry N [1] |
| --- | --- | --- |
| Nc1ncnc2c1ncn2[C@@H]1O[C@H](COP(=O)(O)OP(=O)(O)OP(=O)(O)O)[C@@H](O)[C@H]1O [ATP] | We then tested the ATPase activity of intact PaBqsS purified in Fos-Chol-14 | – |
| Pseudomonas aeruginosa membrane histidine kinase BqsS/CarS, intact (enzyme, also called PaBqsS; intact PaBqsS; source: E. coli BL21 (DE3), membranes solubilized in detergent (Fos-Chol-14), purified (IMAC, TEV cleavage, second IMAC, SEC)) MRSIQRRLSVGLFAVLLVVGLVLAQTGLWLFDQGLRRYFAGNLREEAENLLVAMVRGPNGMQLDEQRLNPAFQRPYSGRYFVIELEKDTWRSRSLWDSELEVPHKKGLVQGLVDGPEEQRLLVFRGHYKRMGQKLRIVVAQDYTPILESFARVQWMGLGAGALALLLVLLLQRLTVRRSLRPLEEVRLQIAQLQQGQRSQLDNQAPEELEPLVEQINHLLAHTEETLKRSRNALGNLGHALKTPLAVLVSLAEREEMARQPELQQVLREQLEQIQQRLGRELGKARLVGEALPGAHFDCAEELPSLCDTLRLIHGPHLQVSWSAPPGLRLPWDREDLLEMLGNLLDNACKWADSEVRLTVAQGEGMVRLKVDDDGPGILPDQRQAVLERGTRLDEQVSGHGLGLGIARDIAEACGGRLSLEDSPLGGLRVSVELPLQKSGRAARA | – | 2 |
